Measurements from paper PMC6268222, “Inhibitory Effects of Resveratrol Analogs on Mushroom Tyrosinase Activity” (Molecules, 2012).
In brackets after ≈: the same amount, converted by molar mass.

What was measured:
[1] = biological target: mushroom tyrosinase (Agaricus bisporus, UniProt C7FF04); assay: Tyrosinase inhibition qualitative enzymatic reaction screening; assay type: biochemical; conditions: second hour of assay; p > 0.05
Experimental: The ability to inhibit the activity of tyrosinase enzyme was evaluated using the enzymatic method described by Macrini et al., with modifications. This method relies on the inhibition of tyrosinase in the presence of its substrate tyrosine, interrupting the synthesis of melanin.
Aliquots (10 µL) of a solution composed of 125 U/mL of mushroom tyrosinase (Sigma-Aldrich, St. Louis, MO, USA) were added to 96-well microplates, and then pH 6.8 phosphate buffer solution (70 µL) and the analogs (60 µL, 350 µg/mL, in 2.5% DMSO) were also added. […] To the resultant mixture, L-tyrosine (70 µL, Sigma-Aldrich) at a concentration of 0.3 mg/mL in distilled water was added (final volume in the wells = 210 µL). The absorbances of the microplate wells were read on a spectrophotometric microplate reader (SpectraCount, Packard, Meriden, CT, USA) at 510 nm (T0). Then, the microplates were incubated at 30 ± 1 °C for 60 minutes and the absorbances were registered again (T1). An additional incubation for 60 minutes at 30 ± 1 °C was done and after this period a new spectrophotometric reading was conducted (T2). The inhibitory percentage at the two times (T1 and T2) was obtained according to the formula to inhibitory activity percentage as follows: [drawing 9] (1) Where IC% = inhibitory activity; C = negative control absorbance; S = sample or positive control absorbance (absorbance at time T1 or T2 minus the absorbance at time T0).

[2] = biological target: tyrosinase; set-up: method as in earlier work; conditions: ref 13 (Bernard and Berthon); cited from earlier work
[3] = system: B16-F10 murine melanoma cells; set-up: method as in PMID 22189272; conditions: cited from earlier work

mushroom tyrosinase, sequence (C7FF04 1-392): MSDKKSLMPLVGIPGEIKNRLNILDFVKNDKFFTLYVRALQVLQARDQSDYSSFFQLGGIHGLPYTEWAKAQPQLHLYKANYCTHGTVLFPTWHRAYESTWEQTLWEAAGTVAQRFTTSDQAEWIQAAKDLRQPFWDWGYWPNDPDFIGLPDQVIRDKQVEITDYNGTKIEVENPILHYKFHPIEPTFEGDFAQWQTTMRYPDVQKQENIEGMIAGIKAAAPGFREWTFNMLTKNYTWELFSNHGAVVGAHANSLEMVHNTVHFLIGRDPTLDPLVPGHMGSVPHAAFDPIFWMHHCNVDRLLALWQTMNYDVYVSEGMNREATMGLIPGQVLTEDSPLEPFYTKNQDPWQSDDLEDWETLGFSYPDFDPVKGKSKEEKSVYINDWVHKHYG

## O=[N+]([O-])c1ccc(/C=N/c2ccccc2)cc1 [Analog C]
other
  melting point: 89.6 to 90.7 °C

## Oc1ccc(/C=N/c2ccccc2)cc1 [Analog D]
[1]
  inhibitory ability compared with kojic acid: statistically equal to that of kojic acid

## Oc1ccccc1/C=N/c1ccccc1 [Analog E]
[1]
  inhibitory ability compared with kojic acid: statistically equal to that of kojic acid

## COc1cc(/C=N/c2ccccc2)ccc1O [Analog F]
[1]
  inhibitory ability compared with kojic acid: statistically equal to that of kojic acid
other
  melting point: 53.1 to 54.2 °C

## Oc1ccc(/C=C/c2cc(O)cc(O)c2)cc1 [resveratrol, Resveratrol]
[2]
  IC50 (tyrosinase inhibition): 57.05 µg/mL (≈ 250 µM)
[3]
  cellular melanin production: significantly suppressed
  cytotoxicity (concentration without any cytotoxicity): > 200 µM
